Marks after values point to notes of the source that are not given here.
Columns and labels:
[1] = test system: microorganisms (PetriFilm Count); test: Serum bottle test: PetriFilm count after treatment (toxicity); format: cell-based
Method: (§1) The test protocol was as follows: 100 mL serum bottles were filled with synthetic nutrient medium, then stoppered, capped, and autoclaved, and allowed to cool to at least 35C. Using a 1 mL syringe with needle, the treatment was added at desired dosages to prepared serum bottles (triplicates of each dosage). No treatment was added for baseline controls. At least 6 baseline serum bottles were used. Using a 1 mL syringe with needle, 0.1 mL of prepared culture was added to each serum bottle.
(§2) Next, a 10^10 cells/ml concentration of the sulfate reducers was prepared (using autoclaved synthetic nutrient medium) inside an anaerobic chamber. Using a 1 ml syringe with needle, 0.1 ml of the prepared sulfate reducers culture was added to each serum bottle. The bottles were then incubated at the desired temperature.
(§3) The baseline dissolved sulfide levels were then measured to determine if the samples were ready for efficacy analysis. Using a 30 mL syringe with needle, 30 mL of sample was removed from each serum bottle. About 25 mL of the sample was added to a 30 mL bottle containing 0.125 mL zinc acetate solution, followed by adding 1 mL of 1N NaOH. The sulfide in the fixed sample was then measured. The remaining 5 mL of sample in the syringe was used for pH determination. Separate field studies were also conducted.

[2] = test system: sulfate reducing bacteria (SRB); test: Serum bottle test: SRB growth after treatment (toxicity); format: cell-based, sulfate reducers
Method: as §1, §2, §3

[3] = Serum bottle test: medium pH after treatment; format: physicochemical
Method: as §1, §2, §3

[4] = test system: real municipal wastewater; test: H2S inhibition using real municipal wastewater, Field Study 1
[5] = test system: real municipal wastewater; test: H2S inhibition using real municipal wastewater, Field Study 2
[6] = scavenger dosage 200 ppm active
[7] = Field Study 1, scavenger dosage 10 ppm active
[8] = Field Study 2, scavenger dosage 10 ppm active

O=CCCCC=O [Glutaraldehyde, reference compound]
PetriFilm Count after Treatment [1, 6]: 0
SRB Growth after Treatment [2, 6]: 0
Medium pH after Treatment [3, 6]: 7.5

O=CC=O [Glyoxal, glyoxal]
PetriFilm Count after Treatment ([1]; scavenger dosage 8 ppm active): 8.3 × 10^8
SRB Growth after Treatment ([2]; scavenger dosage 8 ppm active): 10^8
Head Space H2S ([4]; Field Study 1, scavenger dosage 0.3 ppm active): 27 ppm
Head Space H2S ([4]; Field Study 1, scavenger dosage 3.8 ppm active): 8 ppm
Head Space H2S ([4]; Field Study 1, scavenger dosage 6.0 ppm active): 7 ppm
Head Space H2S ([4]; Field Study 1, scavenger dosage 8 ppm active): 2 ppm
Head Space H2S [4, 7]: 0.5 ppm
Head Space H2S ([5]; Field Study 2, scavenger dosage 0.5 ppm active): 47 ppm
Head Space H2S ([5]; Field Study 2, scavenger dosage 4.0 ppm active): 12 ppm
Head Space H2S ([5]; Field Study 2, scavenger dosage 6.0 ppm active): 0.1 ppm
Head Space H2S ([5]; Field Study 2, scavenger dosage 8.0 ppm active): 0.1 ppm
Head Space H2S [5, 8]: 5.0* ppm
Medium pH after Treatment ([3]; scavenger dosage 8 ppm active): 6.5

O=[N+]([O-])[O-].O=[N+]([O-])[O-].[Mg+2] [Mg(NO3)2, magnesium nitrate, reference compound]
Head Space H2S [4, 7]: 27 ppm
Head Space H2S [5, 8]: 47 ppm

c1ncncn1 [Triazine, triazine]
PetriFilm Count after Treatment ([1]; scavenger dosage 8 ppm active): 5.5 × 10^8
SRB Growth after Treatment ([2]; scavenger dosage 8 ppm active): 10^8
Medium pH after Treatment ([3]; scavenger dosage 8 ppm active): 6.5
